This note sets out measurements from patent US12371454B2, “Cyclic peptide compound having Kras inhibitory action” (priority 2019, dated 2025).

Usually IC50 stands for the concentration needed to halve the response being measured.

Starred links: 1 amine or outer side, 2 acyl side, 3 side chain; linkers in the order of their positions; H or OH if unused. Positions of bridges follow the written chain, without caps; N, C: chain ends. Non-standard residues stand in square brackets, D forms with d. Residues, ends and D or L forms follow the SMILES beside them. *: point of attachment. hPhe(3-Cl-4-CF3) = N[C@@H](CCc1ccc(C(F)(F)F)c(Cl)c1)C(=O)O; hPhe(3-F,4-CF3) = N[C@@H](CCc1ccc(C(F)(F)F)c(F)c1)C(=O)O; hPhe(4-CF3) = N[C@@H](CCc1ccc(C(F)(F)F)cc1)C(=O)O; Phe(2-CF3) = N[C@@H](Cc1ccccc1C(F)(F)F)C(=O)O; Thiomorpholino(1,1-dioxo) = O=S1(=O)CCN(*)CC1; NMe3Pal(6-Me) = CN[C@@H](Cc1ccc(C)nc1)C(=O)O; NMePhe(4-Cl) = CN[C@@H](Cc1ccc(Cl)cc1)C(=O)O; NMePhe(4-Me) = CN[C@@H](Cc1ccc(C)cc1)C(=O)O; NMeNle(6-CHF2) = CN[C@@H](CCCCC(F)F)C(=O)O; NMedβ3hAla = C[C@H](CC(=O)[*:2])N(C)[*:1]; NMeGly(cPent) = CN[C@H](C(=O)O)C1CCCC1; Phe(3-I) = N[C@@H](Cc1cccc(I)c1)C(=O)O; NMeCha = CN[C@@H](CC1CCCCC1)C(=O)O; Azetidine(3,3-F2) = FC1(F)CN(*)C1; N(isopentyl)Gly = CC(C)CCNCC(=O)O; NMeChg = CN[C@H](C(=O)O)C1CCCCC1; NMeF = CN[C@@H](Cc1ccccc1)C(=O)O; N(CH2CH2)2CF2 = FC1(F)CCN(*)CC1; NMeD = CN[C@@H](CC(=O)O)C(=O)O; NMeL = CN[C@@H](CC(C)C)C(=O)O; NMeV = CN[C@H](C(=O)O)C(C)C; d(β3hA) = C[C@@H](N)CC(=O)O; NMeA = CN[C@@H](C)C(=O)O; NMeAib = CNC(C)(C)C(=O)O; Piperidide = C1CCN(*)CC1; Pyrrolidide = C1CCN(*)C1; Ac5c = NC1(C(=O)O)CCCC1; Aze = O=C(O)[C@@H]1CCN1; Isopentyl = CC(C)CC*; Sar = CNCC(=O)O

In the assay the target is T1, Kras and SOS1 (biotin-tagged human Kras loaded with GDP, His-tagged human SOS1) (Homo sapiens, UniProt P01116, G12D).
T1 construct: made in house; host or cells: E. coli (stated for Kras only)
T1 sequence (P01116 1-188 isoform P01116-2 G12D): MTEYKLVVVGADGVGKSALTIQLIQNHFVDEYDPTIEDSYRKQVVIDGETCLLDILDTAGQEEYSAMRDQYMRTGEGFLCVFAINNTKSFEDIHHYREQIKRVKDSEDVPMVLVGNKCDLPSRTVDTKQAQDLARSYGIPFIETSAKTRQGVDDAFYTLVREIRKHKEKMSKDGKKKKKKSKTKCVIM
The assay is described as follows: Protein-protein interaction inhibition between Kras and SOS1 (KrasGl2D-SOS PPI) using AlphaScreen. The format is binding. To be noted: AlphaScreen; biotin-tagged human Kras loaded with GDP, His-tagged human SOS1; read-out: KRAS G12D-SOS PPI IC50. The method, boiled down: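 Donor beads (nickel) hold His-SOS1; acceptor beads (streptavidin) hold biotin-Kras bound to GDP. Signal measured at 520-620 nm following 680 nm excitation.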
On the technique in general: Bead proximity is the source of the signal in Alpha formats.
On to `CC[C@H](C)[C@@H]1NC(=O)[C@H](CC(C)C)N(C)C(=O)C[C@@H](C)N(C)C(=O)[C@H](C2CCCC2)N(C)C(=O)C2(CCCC2)NC(=O)[C@H](CC(=O)N2CCC(F)(F)CC2)N(C)C(=O)[C@H](CCc2ccc(C(F)(F)F)c(Cl)c2)NC(=O)CN(C)C(=O)[C@H](CC2CCCCC2)N(C)C(=O)[C@@H]2CCN2C(=O)[C@H](C)N(C)C1=O` [Compound 777] (cyclo([Ac5c][NMeGly(cPent)][NMedβ3hAla][NMeL]I[NMeA][Aze][NMeCha][Sar][hPhe(3-Cl-4-CF3)][NMeD](N(CH2CH2)2CF2))), for which the IC50 was 330 nM.

As to `CC[C@H](C)[C@@H]1NC(=O)[C@H](C)N(C)C(=O)C[C@@H](C(=O)N2CCCC2)NC(=O)[C@H](CC(C)C)N(C)C(=O)[C@H](CCCCC(F)F)N(C)C(=O)[C@H](CC(C)C)NC(=O)[C@H](CCc2ccc(C(F)(F)F)cc2)NC(=O)CN(C)C(=O)[C@H](Cc2ccc(Cl)cc2)N(C)C(=O)CN(C)C(=O)CN(C)C1=O` [Compound 779] ([NMeA]I[Sar][Sar][NMePhe(4-Cl)][Sar][hPhe(4-CF3)]L[NMeNle(6-CHF2)][NMeL]D-Pyrrolidide; lactam N-11), the IC50 turned out to be 160 nM.

On to `CC[C@H](C)[C@@H]1NC(=O)[C@H](CC(C)C)N(C)C(=O)C[C@@H](C(=O)N2CCS(=O)(=O)CC2)N(C)C(=O)[C@H](C2CCCC2)N(C)C(=O)C2(CCCC2)NC(=O)[C@H](CC(=O)N2CCC(F)(F)CC2)N(C)C(=O)[C@H](CCc2ccc(C(F)(F)F)c(Cl)c2)NC(=O)CN(C)C(=O)[C@H](CC2CCCCC2)N(C)C(=O)[C@@H]2CCN2C(=O)[C@H](C)N(C)C1=O` [Compound 780] ([NMeL]I[NMeA][Aze][NMeCha][Sar][hPhe(3-Cl-4-CF3)][NMeD](N(CH2CH2)2CF2)[Ac5c][NMeGly(cPent)][NMeD]-{Thiomorpholino(1,1-dioxo)}; lactam N-11), for which the 50% inhibitory concentration (IC50) came to 21 nM.

Take `CC[C@H](C)[C@@H]1NC(=O)[C@H](C)N(C)C(=O)C[C@@H](C)NC(=O)[C@H](C(C)C)N(C)C(=O)[C@H](Cc2ccccc2)N(C)C(=O)[C@H](CC(C)C)N(C)C(=O)[C@H](CCc2ccc(C(F)(F)F)c(F)c2)NC(=O)CN(C)C(=O)[C@H](Cc2ccc(Cl)cc2)N(C)C(=O)[C@@H]2CCN2C(=O)CN(C)C1=O` [Compound 782] (cyclo([Aze][NMePhe(4-Cl)][Sar][hPhe(3-F,4-CF3)][NMeL][NMeF][NMeV][d(β3hA)][NMeA]I[Sar])): the IC50 came out at 21 nM.

For `CC[C@H](C)[C@@H]1NC(=O)[C@H](CC(C)C)N(C)C(=O)C[C@@H](C(=O)N2CCCCC2)N(C)C(=O)[C@H](C2CCCCC2)N(C)C(=O)C2(CCCC2)NC(=O)[C@H](Cc2ccc(C)nc2)N(C)C(=O)[C@H](CCc2ccc(C(F)(F)F)c(Cl)c2)NC(=O)CN(C)C(=O)[C@H](CC2CCCCC2)N(C)C(=O)[C@@H]2CCN2C(=O)CN(C)C1=O` [Compound 786] ([NMeL]I[Sar][Aze][NMeCha][Sar][hPhe(3-Cl-4-CF3)][NMe3Pal(6-Me)][Ac5c][NMeChg][NMeD]-Piperidide; lactam N-11), the IC50 stood at 6 nM.

Consider `CC[C@H](C)[C@@H]1NC(=O)[C@H](CC(C)C)N(C)C(=O)C[C@@H](C(=O)N2CCCCC2)N(C)C(=O)[C@H](CC(C)C)NC(=O)C(C)(C)N(C)C(=O)[C@H](Cc2ccccc2C(F)(F)F)NC(=O)[C@H](Cc2cccc(I)c2)NC(=O)CN(C)C(=O)[C@H](Cc2ccc(C)cc2)N(C)C(=O)[C@@H]2CCN2C(=O)CN(C)C1=O` [Compound 791] ([NMeL]I[Sar][Aze][NMePhe(4-Me)][Sar][Phe(3-I)][Phe(2-CF3)][NMeAib]L[NMeD]-Piperidide; lactam N-11), for which the IC50 came to 320 nM.

On to `CC[C@H](C)[C@@H]1NC(=O)[C@H](C)N(C)C(=O)C[C@@H](C(=O)N2CCCCC2)N(C)C(=O)[C@H](C(C)C)N(C)C(=O)[C@H](COC)NC(=O)[C@H](CC(=O)N2CC(F)(F)C2)N(C)C(=O)[C@H](CCc2ccc(C(F)(F)F)c(Cl)c2)NC(=O)CN(C)C(=O)[C@H](CC2CCCCC2)N(C)C(=O)CN(C)C(=O)CN(C)C1=O` [Compound 793] ([NMeA]I[Sar][Sar][NMeCha][Sar][hPhe(3-Cl-4-CF3)][NMeD](Azetidine(3,3-F2))S(Me)[NMeV][NMeD]-Piperidide; lactam N-11), for which the IC50 came out at 24 nM.

As to `CC(C)CCOC[C@@H]1NC(=O)[C@H](CC(C)C)N(C)C(=O)C[C@@H](C(=O)N2CCCCC2)N(C)C(=O)[C@H](C2CCCCC2)N(C)C(=O)C2(CCCC2)NC(=O)[C@@H]2CCCN2C(=O)[C@H](CCc2ccc(C(F)(F)F)c(Cl)c2)NC(=O)CN(C)C(=O)[C@H](CC2CCCCC2)N(C)C(=O)CN(C)C(=O)CN(C)C1=O` [Compound 794] ([NMeL]S(Isopentyl)[Sar][Sar][NMeCha][Sar][hPhe(3-Cl-4-CF3)]P[Ac5c][NMeChg][NMeD]-Piperidide; lactam N-11), the IC50 was found to be 11 nM.

In the case of `CC[C@H](C)[C@@H]1NC(=O)[C@H](CC(C)C)N(C)C(=O)C[C@@H](C)NC(=O)[C@H](C(C)C)N(C)C(=O)C2(CCCC2)NC(=O)[C@@H]2CCCN2C(=O)[C@H](CCc2ccc(C(F)(F)F)c(Cl)c2)NC(=O)CN(C)C(=O)[C@H](CC2CCCCC2)N(C)C(=O)CN(CCC(C)C)C(=O)CN(C)C1=O` [Compound 801] (cyclo([Ac5c][NMeV][d(β3hA)][NMeL]I[Sar][N(isopentyl)Gly][NMeCha][Sar][hPhe(3-Cl-4-CF3)]P)), the IC50 was determined as 450 nM.
